ChEMBL document CHEMBL1777754, “Synthesis and crystallographic analysis of new sulfonamides incorporating NO-donating moieties with potent antiglaucoma action” (Bioorg Med Chem Lett, 2011)
pKi: −log10 of the molar value.

Legend:
Carbonic anhydrase 9 = Carbonic anhydrase 9 (Homo sapiens, UniProt Q16790)
Description: Inhibition of human recombinant CA9 catalytic domain by CO2 hydration assay

Carbonic anhydrase 4 = Carbonic anhydrase 4 (Homo sapiens, UniProt P22748)
Description: Inhibition of human CA4 by CO2 hydration assay

Carbonic anhydrase 2 = Carbonic anhydrase 2 (Homo sapiens, UniProt P00918)
Description: Inhibition of human CA2 by CO2 hydration assay

Carbonic anhydrase 12 = Carbonic anhydrase 12 (Homo sapiens, UniProt O43570)
Carbonic anhydrase 12, sequence (O43570 whole entry): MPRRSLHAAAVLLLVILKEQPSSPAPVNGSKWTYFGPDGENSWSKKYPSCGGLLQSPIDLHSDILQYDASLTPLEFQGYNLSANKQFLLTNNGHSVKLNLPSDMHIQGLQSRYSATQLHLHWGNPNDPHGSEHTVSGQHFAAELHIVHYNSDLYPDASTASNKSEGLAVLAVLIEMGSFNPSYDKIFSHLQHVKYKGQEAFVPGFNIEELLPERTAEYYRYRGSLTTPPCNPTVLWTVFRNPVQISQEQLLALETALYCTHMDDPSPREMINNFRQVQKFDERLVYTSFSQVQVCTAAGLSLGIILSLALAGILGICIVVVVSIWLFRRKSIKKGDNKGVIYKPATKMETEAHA
Description: Inhibition of human recombinant CA12 catalytic domain by CO2 hydration assay

Carbonic anhydrase 1 = Carbonic anhydrase 1 (Homo sapiens, UniProt P00915)
Carbonic anhydrase 1, sequence (P00915 whole entry): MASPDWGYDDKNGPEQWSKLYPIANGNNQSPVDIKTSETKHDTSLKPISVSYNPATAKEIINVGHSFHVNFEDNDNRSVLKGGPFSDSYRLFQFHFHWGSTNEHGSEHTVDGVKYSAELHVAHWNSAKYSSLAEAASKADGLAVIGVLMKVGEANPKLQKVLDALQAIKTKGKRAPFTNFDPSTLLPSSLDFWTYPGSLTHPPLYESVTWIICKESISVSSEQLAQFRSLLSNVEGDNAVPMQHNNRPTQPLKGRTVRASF
Description: Inhibition of human CA1 by CO2 hydration assay

Oryctolagus cuniculus [1] = assay: Antiglaucoma activity in New Zealand rabbits assessed as inhibition of carbomer-induced ocular hypertension at 2 % in 50 uL administered into eye after 2 to 3 weeks of carbomer challenge (reference value: 34.2 +/- 1.4 mmHg); type: functional
[2] = Solubility of the compound in water; type: physicochemical; conditions: buffer
Oryctolagus cuniculus [3] = assay: Antiglaucoma activity in New Zealand rabbits assessed as inhibition of carbomer-induced ocular hypertension at 2 % in 50 uL administered into eye after 2 to 3 weeks of carbomer challenge (reference value: 35.3 +/- 1.2 mmHg); type: functional

Carbonic anhydrase 4, sequence (P22748 whole entry): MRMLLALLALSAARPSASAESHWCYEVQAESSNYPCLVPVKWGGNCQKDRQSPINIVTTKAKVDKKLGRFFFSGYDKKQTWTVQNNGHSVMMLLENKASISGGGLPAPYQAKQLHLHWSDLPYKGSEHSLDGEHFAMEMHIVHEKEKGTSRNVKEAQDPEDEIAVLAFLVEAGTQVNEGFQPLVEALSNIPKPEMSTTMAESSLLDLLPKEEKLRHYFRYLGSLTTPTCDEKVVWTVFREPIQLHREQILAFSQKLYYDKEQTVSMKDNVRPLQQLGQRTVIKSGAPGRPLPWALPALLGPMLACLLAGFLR

| pKi (Carbonic anhydrase 9) | pKi (Carbonic anhydrase 4) | pKi (Carbonic anhydrase 2) | pKi (Carbonic anhydrase 12) | pKi (Carbonic anhydrase 1) | solubility [2] | SMILES | Activity (Oryctolagus cuniculus [1]) | Activity (Oryctolagus cuniculus [3]) |
| --- | --- | --- | --- | --- | --- | --- | --- | --- |
| 8.00 | 7.34 | 8.00 | 7.51 | 7.49 | – | NS(=O)(=O)c1nnc(NS(=O)(=O)c2ccc(C(=O)OCCCCO[N+](=O)[O-])cc2)s1 | – | – |
| – | – | 8.85 | – | – | – | CCN(CC)CCOC(=O)c1ccc(S(=O)(=O)Nc2nnc(S(N)(=O)=O)s2)cc1 | – | – |
| 7.08 | 6.83 | 7.06 | 7.08 | 6.23 | – | NS(=O)(=O)c1ccc(OCCCO[N+](=O)[O-])cc1 | – | – |
| 6.60 | 6.46 | 6.70 | 6.83 | 6.62 | – | NS(=O)(=O)c1ccc(C(=O)OCc2ccc(CO[N+](=O)[O-])cc2)cc1 | – | – |
| 6.75 | 6.65 | 7.48 | 7.38 | 6.86 | – | COc1cc(/C=C/C(=O)OCCCCO[N+](=O)[O-])ccc1OC(=O)c1cccc(S(=O)(=O)Nc2nnc(S(N)(=O)=O)s2)c1 | – | – |
| 7.60 | 7.12 | 7.92 | 7.54 | 7.39 | – | NS(=O)(=O)c1ccc(OCCCCO[N+](=O)[O-])cc1 | – | – |
| 6.78 | 7.36 | 7.74 | 7.52 | 6.72 | 2% | NS(=O)(=O)c1ccc(C(=O)OCCCCO[N+](=O)[O-])cc1 | 20.6 mmHg | – |
| 6.63 | 6.81 | – | 7.51 | 7.40 | – | NS(=O)(=O)c1nnc(NS(=O)(=O)c2cccc(C(=O)OCCCCO[N+](=O)[O-])c2)s1 | – | – |
| 7.96 | 7.42 | 7.85 | 7.37 | 7.37 | – | COc1cc(/C=C/C(=O)OCCCCO[N+](=O)[O-])ccc1OC(=O)c1ccc(S(=O)(=O)Nc2nnc(S(N)(=O)=O)s2)cc1 | – | – |
| – | – | – | – | – | – | O=[N+]([O-])O[C@@H]1CO[C@H]2[C@@H]1OC[C@@H]2O [ISOSORBIDE MONONITRATE] | – | 28.4 mmHg |
| 7.96 | 7.33 | 8.00 | 7.72 | 7.82 | > 0.3% | COc1cc(/C=C/C(=O)OCCCCO[N+](=O)[O-])ccc1OC(=O)c1ccc(S(N)(=O)=O)cc1 | – | – |
| 7.03 | 6.86 | 7.00 | 7.06 | 6.40 | – | COc1cc(/C=C/C(=O)OCCCCO[N+](=O)[O-])ccc1OC(=O)CCc1ccc(S(N)(=O)=O)cc1 | – | – |

| SMILES | pKi (Carbonic anhydrase 9) | pKi (Carbonic anhydrase 4) | pKi (Carbonic anhydrase 2) | pKi (Carbonic anhydrase 12) | pKi (Carbonic anhydrase 1) | solubility [2] | Activity (Oryctolagus cuniculus [1]) | Activity (Oryctolagus cuniculus [3]) |
| --- | --- | --- | --- | --- | --- | --- | --- | --- |
| NS(=O)(=O)c1ccc(OCCCCCO[N+](=O)[O-])cc1 | 7.07 | 7.05 | 7.15 | 6.94 | 6.02 | – | – | – |
